# US11504394B2, “Targeted ionophore-based metal delivery” (The Regents of the University of California, priority 2018, dated 2022)
# Columns and labels:
# [1] = tested on: MT-I/MT-II; test: Western blot of liver lysates, MT-I/II; assay type: in vivo, mouse; details: 6 hours and 24 hours
# Experimental: Frozen mouse livers were minced into 50 mg samples on dry ice and homogenized in ice-cold RIPA buffer (25 mM Tris.HCl pH 7.6, 150 mM NaCl, 1% NP-40, 1% sodium deoxycholate, 0.1% SDS) containing protease inhibitor cocktail with EDTA (Roche) at 100 mg/mL using a hand-held mechanical homogenizer. Homogenates were incubated on ice for 30 min and centrifuged at 12,000×g for 20 min at 4° C. The soluble protein lysates were collected from underneath the upper lipid layer with a pipette and transferred to new tubes. Protein concentration was determined using a detergent-compatible Bradford Assay (Pierce).
# Protein lysates were denatured in NuPAGE lithium dodecyl sulfate sample buffer (Invitrogen) containing 10% v/v β-mercaptoethanol as a reducing agent. […] The membranes were washed 5 times for 5 minutes in TBST, then visualized using enhanced chemiluminescence (Western Lighting Plus for visualizing CCS and ATP7B, Perkin Elmer; Western Clarity Max for visualizing CTR1 and MT, Bio-Rad) recorded on a BioRad GelDoc imaging station. β-actin was probed to determine equal loading using anti-β-actin (sc-69879, Santa Cruz Biotechnology) and AlexaFluor 647-conjugated anti-mouse IgG (A31571, Molecular Probes) antibodies at 1:5000 and 1:2500 dilutions, respectively, with visualization using fluorescence recorded on a BioRad GelDoc imaging station.
# [2] = tested on: HepG2 (ASGPR-expressing) cells; test: Cellular copper delivery by ICP-MS, HepG2; assay type: cell-based
# Experimental: Cells were maintained by the UC Berkeley Tissue Culture Facility. HEK 293T and HepG2 cells were maintained as a monolayer in exponential growth at 37° C. in a 5% CO2 atmosphere. HEK 293T cells were maintained in Dulbecco's Modified Eagle Medium (DMEM, Gibco) supplemented with 10% fetal bovine serum (FBS, Hyclone), and glutamax (Gibco). HepG2 cells were maintained in low glucose DMEM with L-glutamine and sodium pyruvate (Gibco). One day before ionophore treatment, cells were passaged and plated in DMEM with glutamax supplemented with 10% FBS on either poly D-lysine-coated (HEK 293T) or gelatin-coated (HepG2) sterile 6-well Corning polystyrene plates. Cells were grown to 60 to 80% confluency prior to ionophore treatment.
# Cells were washed twice with serum-free DMEM. 2 mM stock solutions of Cu(gtsm) or Gal-Cu(gtsm) were diluted in serum-free DMEM to a final ionophore concentration of 4 μM. 2 mL of vehicle (0.2% DMSO in DMEM), 4 μM Cu(gtsm), or 4 μM Gal-Cu(gtsm) were then added to the 6-well plates and incubated for three hours. For the galactose competition experiment, cells were washed twice with serum-free DMEM, then incubated with 2 mL serum-free DMEM either with or without 1 M D-galactose (Sigma Aldrich) for 15 minutes. 4 μL of DMSO, 2 mM Cu(gtsm), or 10 mM Gal-Cu(gtsm) was diluted with 300 μL of cell media, which was then mixed back into each well. Cells were then incubated for one hour. Cells were then rinsed twice with ice-cold EDTA (1 mM in 50 mM HEPES buffer, pH=7.4) to remove cell surface-bound copper and rinsed twice with ice-cold 50 mM HEPES buffer (pH=7.4), followed by the addition of 215 μL concentrated nitric acid (BDH Aristar Ultra). The plates were sealed with Parafilm and incubated on a shaker overnight. Samples (150 μL) were further diluted in 2 mL 2% nitric acid (made freshly from concentrated nitric acid and Milli-Q water) in 15 mL tubes (Sarstedt) and analyzed on a Thermo Fisher iCAP Qc ICP mass spectrometer in kinetic energy discrimination (KED) mode against a standard curve of known copper and phosphorus concentrations (CMS-5, Inorganic Ventures), with Ga (20 μg/L, Inorganic Ventures) as an internal standard. Each experiment was carried out twice and each condition was repeated in at least triplicate.
# [3] = tested on: HepG2 cells; test: Cell viability, propidium iodide staining, HepG2; assay type: cell-based; details: 500 μM dose, HepG2, three hours
# Experimental: Flow cytometry experiments were performed with BD LSR Fortessa Cell Analyzer in the College of Chemistry at UC Berkeley. Gains were set to include live cells based on viability experiments using propidium iodide, with dead cells via 0.1% saponin treatment as a negative control. The standard PE-A (570 nm longpass, 586/15 nm bandpass) was used. For each biological replicate, three technical replicates of 5,000 (HepG2) or 10,000 cells (HEK 293T) were counted. Flow cytometry data was processed using FlowJo (FlowJo, LLC).
# HEK 293T cells were plated in 6-well plates at 60-80% confluency. After ionophore treatment at the given concentration for three hours, cells were washed with DMEM and incubated with 3 μM propidium iodide in PBS for 15 minutes, then rinsed in PBS. HEK 293T cells were mechanically removed via pipetting off the plate with 1 mL PBS and filtered through a 35 μm nylon mesh into 5 mL culture tubes for analysis. HepG2 cells were plated in 12-well plates at 60-80% confluency. […]
structure (smiles),measurement,setting,value
CNC1=N[N+]2=CC=[N+]3N=C(NCCOCCOCCOC4OC(CO)C(O)C(O)C4NC(C)=O)[S][Cu-2]23[S]1 (stereo not drawn) [Gal-Cu(gtsm)],MT-I/MT-II expression in liver,[1],increases dramatically
same,Cu increase relative to basal levels (^63Cu/^31P),"[2]; HepG2, 4 μM, three hours, serum-free DMEM",4 fold
same,temperature dependent uptake,"[2]; HepG2, 4° C. vs 37° C.",much higher uptake at 37 °C than at 4 °C
same,Cu delivery in presence of D-galactose (competitive ASGPR ligand),"[2]; HepG2, D-galactose 1 M, one hour, Cu(gtsm) 4 μM, Gal-Cu(gtsm) 20 μM",significantly attenuated
same,dose response of cellular copper content,"[2]; HepG2, ICP-MS total copper",robust dose-dependent copper delivery response
same,ionophore toxicity (cell viability),[3],non-toxic
